Experimental data published in US8465726B2, “Stilbene derivatives and their use for binding and imaging amyloid plaques” (The Trustees of the University of Pennsylvania, priority 2004, dated 2013).

What was measured:
[1] = Organ distribution in normal mice after iv injection; format: in vivo; conditions: ICR mice
Procedure: The organs of interest were removed and weighed, and the radioactivity was assayed for radioactivity content with an automatic gamma counter. The percentage dose per organ was calculated by a comparison of the tissue counts to suitably diluted aliquots of the injected material. Total activities of blood were calculated under the assumption that they were 7% of the total body weight. The % dose/g of samples was calculated by comparing the sample counts with the count of the diluted initial dose.

[2] = test system: amyloid deposits / Aβ plaques in the brain; conditions: cited from earlier work

Structure (SMILES) | Biodistribution, Blood ([1]; 2 min after iv injection) [% dose/g] | Biodistribution, Bone ([1]; 2 min after iv injection) [% dose/g] | Biodistribution, Brain ([1]; 2 min after iv injection) [% dose/g] | Biodistribution, Blood ([1]; 30 min after iv injection) [% dose/g] | Biodistribution, Bone ([1]; 30 min after iv injection) [% dose/g] | Biodistribution, Brain ([1]; 30 min after iv injection) [% dose/g] | Biodistribution, Blood ([1]; 1 hr after iv injection) [% dose/g] | Biodistribution, Bone ([1]; 1 hr after iv injection) [% dose/g] | Biodistribution, Brain ([1]; 1 hr after iv injection) [% dose/g] | Biodistribution, Blood ([1]; 2 hr after iv injection) [% dose/g] | Biodistribution, Bone ([1]; 2 hr after iv injection) [% dose/g] | Biodistribution, Brain ([1]; 2 hr after iv injection) [% dose/g] | retention in the cortex ([2]; patients with diagnosed mild AD) | accumulation in the frontal cortex ([2]; mild to moderate AD patients, not in age-matched control subjects) | relative residence time of the brain region of interest versus the pons ([2]; AD patients versus comparison subjects, PET)
CNc1ccc(C=Cc2ccc(OCCOCCF)cc2)cc1 [12a, [4-(2-{4-[2-(2-Fluoro-ethoxy)-ethoxy]-phenyl}-vinyl)-phenyl]-methyl-amine] | 2.64 ± 0.55 | 1.89 ± 0.25 | 8.14 ± 2.03 | 2.42 ± 0.27 | 1.40 ± 0.11 | 3.00 ± 0.16 | 2.04 ± 0.16 | 1.71 ± 0.23 | 2.60 ± 0.22 | 2.77 ± 0.63 | 2.88 ± 0.07 | 2.14 ± 0.06 |  |  | 
CNc1ccc(C=Cc2ccc(OCCOCCOCCOCCF)cc2)cc1 [12c, (4-{2-[4-(2-{2-[2-(2-Fluoro-ethoxy)-ethoxy]-ethoxy}-ethoxy)-phenyl]-vinyl}-phenyl)-methyl-amine] | 3.22 ± 0.20 | 2.31 ± 0.12 | 6.59 ± 0.19 | 1.88 ± 0.08 | 1.00 ± 0.02 | 1.27 ± 0.03 | 1.81 ± 0.48 | 0.98 ± 0.27 | 1.20 ± 0.10 | 1.60 ± 0.12 | 1.50 ± 0.05 | 1.21 ± 0.06 |  |  | 
CNc1ccc(C=Cc2ccc(OCCOCCOCCOCCOCCF)cc2)cc1 [12d, [4-(2-{4-[2-(2-{2-[2-(2-Fluoro-ethoxy)-ethoxy]-ethoxy}-ethoxy)-ethoxy]-phenyl}-vinyl)-phenyl]-methyl-amine] | 4.99 ± 0.38 | 2.24 ± 0.21 | 7.30 ± 1.05 | 4.66 ± 0.06 | 2.29 ± 0.21 | 2.43 ± 0.03 | 2.89 ± 0.11 | 1.66 ± 0.01 | 1.77 ± 0.11 | 2.59 ± 0.18 | 2.35 ± 0.27 | 1.62 ± 0.03 |  |  | 
[11CH3]Nc1ccc(-c2nc3ccc(O)cc3s2)cc1 [[^11C]6-OH-BTA-1] |  |  |  |  |  |  |  |  |  |  |  |  | marked retention |  | 
[11CH3]Nc1ccc(/C=C/c2ccc(O)cc2)cc1 [[^11C]SB-13] |  |  |  |  |  |  |  |  |  |  |  |  |  | high accumulation | 
CNc1ccc(C=Cc2ccc(OCCOCCOCC[18F])cc2)cc1 [[^18F]12b, [^18F]{4-[2-(4-{2-[2-(2-Fluoro-ethoxy)-ethoxy]-ethoxy}-phenyl)-vinyl]-phenyl}-methyl-amine] |  |  |  |  |  |  |  |  |  |  | 2.74 |  |  |  | 
CC(=C(C#N)C#N)c1ccc2cc(N(C)CCF)ccc2c1 [[^18F]FDDNP] |  |  |  |  |  |  |  |  |  |  |  |  |  |  | significantly higher in AD patients
